The text below walks through data of patent publication US7507281B2, “Antimicrobial cementitious composition, method and article” (Microban Products Company, priority 2005, dated 2009).

The test system of one data set is Aspergillus niger. Briefly: AATCC 30 Part III antifungal test of grout discs after QUV/Xenon exposure and water-spray neutralization (Example 2). The conditions noted are these: for Growth A. niger: weathered and pH-neutralized, 168-hour incubation, sulfate. It is filed as cell-based. On the procedure:
Grout samples were prepared and cured as in Example 1, with antimicrobial agent admixed into the dry compound at levels of 0 ppm, 1000 ppm, and 2000 ppm based upon the total weight of the dry mix and antimicrobial agent (excluding water). Water was added, the slurry mixed, and 1.5-inch diameter pucks cast.
After air-curing, the samples were exposed for eight hours in either of QUV/Spray Accelerated Weathering Controller or Xenon Testing Chamber Xe-3HS (both by Q-Panel Lab Products, Cleveland, Ohio). The QUV exposure is an assay well known in the art for simulating aging, discoloration and/or degradation caused by conditions of ultraviolet radiation exposure, such as would be encountered in an outdoor application.
Thereafter, the sample discs were subjected to one hour of water spray, followed by one hour of condensation, alternatingly repeated for a total of eight hours. This treatment neutralizes the pH of the grout samples, simulating brief real-world exposure of the grout articles to, e.g., a shower stall application.
Samples then were plated against Aspergillus niger using the 30 Part III test. At the end of the 168-hour incubation period, the test plates were removed from the test chamber and the samples were evaluated for fungal attack and encroachment. The antimicrobial agent tested and the results of the evaluation are shown in Table 2; control and experimental plates are shown in FIGS. 1-3.

Another data set concerns S. aureus. Briefly: Zone of inhibition of fresh cured BAL grout discs, S. aureus (Example 1). The class given is cell-based. The conditions noted are these: Staphylococcus aureus.
The next data set concerns K. pneumoniae. The experiment in a line: Zone of inhibition of fresh cured BAL grout discs, K. pneumoniae (Example 1). It is filed as cell-based. The conditions noted are these: Klebsiella pneumoniae.
Data set [1] is described as follows: UV stability / discoloration under ultraviolet irradiation. The class given is physicochemical. The conditions noted are these: UVA 340 lamps, 168 hrs. The text has this: Resistance to ultraviolet radiation and discoloring is advantageous given the typical outdoor environment of cured cementitious articles.
The next data set can be described thus: Thermal stability. The class given is physicochemical. The method, then: This species also appears to be thermally stable up to 160° C. and above. Thermal stability makes imazalil agent especially well-suited for inclusion in the production of cementitious powder by various manufacturers, as these powders are typically dried and packed at elevated temperatures. Many other antimicrobial/antifungal agents tend to discolor and clump when so thermally exposed.

Where [2] appears, read: 1000 ppm imazalil sulfate in BAL grout disc, fresh cured.
Setting [3] is: 2000 ppm imazalil sulfate in BAL grout disc, fresh cured.

Bounds are passed on as bounds.

As for `C=CCOC(Cn1ccnc1)c1ccc(Cl)cc1Cl.O=S(=O)(O)O` (racemic) [Imazalil Sulfate, (±)-1-[2-(2,4-dichlorophenyl)-2-(2-propenyloxy)ethyl]-1H-imidazole sulfate], the “Growth A. niger” value in the data set with Aspergillus niger (1000 ppm imazalil sulfate in grout disc) and in the data set with Aspergillus niger (2000 ppm imazalil sulfate in grout disc) was “no growth” each time. Further, the zone of inhibition at 500 ppm in the data set with S. aureus (BAL, read-out: Zone of Inhibition, mm S. aureus) came out at 5 mm; in the data set on K. pneumoniae (BAL, read-out: Zone of Inhibition, mm K. pneumoniae), 5 mm. Also, the zone of inhibition at 1000 ppm in the data set with S. aureus (setting [2]) stood at 6 mm; with K. pneumoniae (setting [2]) it was 5 mm. Further, the zone of inhibition at 2000 ppm was 6 mm with S. aureus (setting [3]) and 5 mm with K. pneumoniae (setting [3]).

Regarding `C=CCOC(Cn1ccnc1)c1ccc(Cl)cc1Cl` (racemic) [imazalil agent, (±)-1-[2-(2,4-dichlorophenyl)-2-(2-propenyloxy)ethyl]-1H-imidazole], in the data set on Aspergillus niger (1000 ppm imazalil agent in BAL grout, Aspergillus niger), the “Resistance of grout puck to fungal attack (FIG. 2)” value is “strong resistance to fungal attack”. Moreover, the “Disruption to fungal encroachment by grout sample (FIG. 3)” value in the data set on Aspergillus niger (2000 ppm imazalil agent in BAL grout, Aspergillus niger) is “significant disruption to fungal encroachment”. Besides, the “Discoloration after prolonged exposure to ultraviolet irradiation” value in data set [1] is given as “no discoloration”. The “Thermally stable up to” value in the data set “Thermal stability” was ≥ 160 °C.
